Measured values: the supplement of paper PMC10307832

compound: N[C@@H]1CCCN(c2c(/C=C3\SC(=O)NC3=O)cccc2-c2ccccc2)C1 [AZD1208] + O=C(c1cc(Cc2n[nH]c(=O)c3ccccc23)ccc1F)N1CCN(C(=O)C2CC2)CC1 [Olaparib] (partner 8 µM); assay: relative viability (nuclei count vs DMSO), 5 days (fraction); higher = more cells survive; settings: first compound 0.08 µM
Outline: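 One day after seeding in 1536-well plates, lung cancer cell lines were dosed by pin tool. Dosing was either single-drug or a fixed anchor-drug dose plus five library-drug doses (not always all listed) in √10 steps. After 5 days, nuclei were stained in one fix-and-stain step and counted on 4× images, and relative viability is the nuclei count of treated wells over that of vehicle wells, given as the median of duplicate plates.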

Which relative viability does the source give for NCI-H2126 here?
Its relative viability is 0.944.

For NCI-H2342, which relative viability is on record?
The relative viability was 0.49.

Which relative viability does the source give for SK-MES-1 here?
Its relative viability is 0.697.

Which relative viability does the source give for H3255 here?
The relative viability was 0.593.

How did the relative viability turn out when COR-L23 was run?
Its relative viability is 0.307.

Which relative viability does the source give for COR-L 105 here?
Its relative viability is 0.702.

IA-LM was tested. Which relative viability did it give?
Its relative viability is 0.907.

Which relative viability does the source give for LOU-NH91 here?
The relative viability was 0.905.

Which relative viability does the source give for ChaGo-K-1 here?
Its relative viability is 0.426.

How did the relative viability turn out when NCI-H2170 was run?
Its relative viability is 0.683.

NCI-H3122 was tested. Which relative viability did it give?
Its relative viability is 0.691.

Which relative viability does the source give for HOP-62 here?
Its relative viability is 0.39.

How did the relative viability turn out when HCC-44 was run?
Its relative viability is 0.989.

For A549, which relative viability is on record?
Its relative viability is 0.345.

How did the relative viability turn out when SW 900 was run?
The relative viability was 0.692.

With LU99A as the cell line, how does the relative viability read?
Its relative viability is 0.273.

BEN was tested. Which relative viability did it give?
Its relative viability is 1.01.

HARA was tested. Which relative viability did it give?
The relative viability was 0.825.

With NCI-H1648 as the cell line, how does the relative viability read?
The relative viability was 1.09.

HCC-78 was tested. Which relative viability did it give?
The relative viability was 0.859.

Which relative viability does the source give for NCI-H441 here?
The relative viability was 0.578.

How did the relative viability turn out when LCLC-97TM1 was run?
The relative viability was 0.327.

With NCI-H2023 as the cell line, how does the relative viability read?
The relative viability was 0.473.

Which relative viability does the source give for A-427 here?
The relative viability was 0.674.

How did the relative viability turn out when NCI-H460 was run?
The relative viability was 0.474.

For NCI-H727, which relative viability is on record?
Its relative viability is 0.793.

NCI-H1734 was tested. Which relative viability did it give?
Its relative viability is 0.679.

NCI-H520 was tested. Which relative viability did it give?
The relative viability was 0.357.

NCI-H2405 was tested. Which relative viability did it give?
Its relative viability is 0.806.

With SW 1573 as the cell line, how does the relative viability read?
The relative viability was 0.417.

Which relative viability does the source give for NCI-H1395 here?
The relative viability was 0.479.

With 201T as the cell line, how does the relative viability read?
The relative viability was 0.876.

Which relative viability does the source give for NCI-H1915 here?
Its relative viability is 0.251.

With HCC-827 as the cell line, how does the relative viability read?
The relative viability was 0.623.

For LXF-289, which relative viability is on record?
Its relative viability is 1.03.

Which relative viability does the source give for NCI-H2347 here?
The relative viability was 0.614.

Which relative viability does the source give for NCI-H1299 here?
Its relative viability is 0.999.

same assay, conditions: first compound 0.253 µM

NCI-H522 was tested. Which relative viability did it give?
Its relative viability is 0.504.

NCI-H838 was tested. Which relative viability did it give?
Its relative viability is 0.796.

NCI-H1650 was tested. Which relative viability did it give?
The relative viability was 0.787.

With EBC-1 as the cell line, how does the relative viability read?
Its relative viability is 0.707.

With NCI-H1703 as the cell line, how does the relative viability read?
The relative viability was 0.334.

For NCI-H2009, which relative viability is on record?
The relative viability was 0.81.

NCI-H1993 was tested. Which relative viability did it give?
Its relative viability is 0.973.

For PC-14, which relative viability is on record?
Its relative viability is 0.248.

LCLC-103H was tested. Which relative viability did it give?
The relative viability was 0.798.

With NCI-H596 as the cell line, how does the relative viability read?
The relative viability was 0.563.

With NCI-H2228 as the cell line, how does the relative viability read?
The relative viability was 0.754.

For EMC-BAC-2, which relative viability is on record?
Its relative viability is 0.536.

Which relative viability does the source give for NCI-H2087 here?
Its relative viability is 0.548.

How did the relative viability turn out when Calu-6 was run?
Its relative viability is 0.648.

For HCC-366, which relative viability is on record?
Its relative viability is 0.311.

How did the relative viability turn out when NCI-H1666 was run?
The relative viability was 0.766.

With NCI-H647 as the cell line, how does the relative viability read?
The relative viability was 0.587.

With LK-2 as the cell line, how does the relative viability read?
Its relative viability is 0.736.

With NCI-H2126 as the cell line, how does the relative viability read?
Its relative viability is 0.917.

With NCI-H2342 as the cell line, how does the relative viability read?
Its relative viability is 0.383.

Which relative viability does the source give for SK-MES-1 here?
The relative viability was 0.715.

H3255 was tested. Which relative viability did it give?
Its relative viability is 0.611.

How did the relative viability turn out when COR-L23 was run?
Its relative viability is 0.354.

For COR-L 105, which relative viability is on record?
The relative viability was 0.586.

How did the relative viability turn out when IA-LM was run?
The relative viability was 0.777.

Which relative viability does the source give for LOU-NH91 here?
Its relative viability is 0.943.

How did the relative viability turn out when ChaGo-K-1 was run?
Its relative viability is 0.431.

For NCI-H2170, which relative viability is on record?
The relative viability was 0.697.

How did the relative viability turn out when NCI-H3122 was run?
The relative viability was 0.677.

Which relative viability does the source give for HOP-62 here?
Its relative viability is 0.417.

Which relative viability does the source give for HCC-44 here?
Its relative viability is 0.918.

A549 was tested. Which relative viability did it give?
The relative viability was 0.38.

SW 900 was tested. Which relative viability did it give?
The relative viability was 0.538.

LU99A was tested. Which relative viability did it give?
The relative viability was 0.266.

With BEN as the cell line, how does the relative viability read?
The relative viability was 0.985.

For HARA, which relative viability is on record?
The relative viability was 0.471.

With NCI-H1648 as the cell line, how does the relative viability read?
The relative viability was 1.44.

How did the relative viability turn out when HCC-78 was run?
The relative viability was 0.904.

How did the relative viability turn out when NCI-H441 was run?
Its relative viability is 0.529.

How did the relative viability turn out when LCLC-97TM1 was run?
The relative viability was 0.396.

How did the relative viability turn out when NCI-H2023 was run?
The relative viability was 0.51.

For A-427, which relative viability is on record?
The relative viability was 0.758.

For NCI-H460, which relative viability is on record?
The relative viability was 0.43.

How did the relative viability turn out when NCI-H727 was run?
Its relative viability is 0.556.

NCI-H1734 was tested. Which relative viability did it give?
Its relative viability is 0.575.

Which relative viability does the source give for NCI-H520 here?
Its relative viability is 0.278.

Which relative viability does the source give for NCI-H2405 here?
The relative viability was 0.837.

For SW 1573, which relative viability is on record?
Its relative viability is 0.499.

How did the relative viability turn out when NCI-H1395 was run?
Its relative viability is 0.432.

With 201T as the cell line, how does the relative viability read?
The relative viability was 0.84.

For NCI-H1915, which relative viability is on record?
Its relative viability is 0.236.

How did the relative viability turn out when HCC-827 was run?
Its relative viability is 0.669.

With LXF-289 as the cell line, how does the relative viability read?
Its relative viability is 1.23.

Which relative viability does the source give for NCI-H2347 here?
Its relative viability is 0.628.

With NCI-H1299 as the cell line, how does the relative viability read?
The relative viability was 1.01.

same assay, conditions: first compound 0.8 µM

How did the relative viability turn out when NCI-H522 was run?
The relative viability was 0.633.

NCI-H838 was tested. Which relative viability did it give?
Its relative viability is 0.72.

Which relative viability does the source give for NCI-H1650 here?
The relative viability was 0.839.

For EBC-1, which relative viability is on record?
Its relative viability is 0.63.

For NCI-H1703, which relative viability is on record?
Its relative viability is 0.268.

How did the relative viability turn out when NCI-H2009 was run?
The relative viability was 0.698.

For NCI-H1993, which relative viability is on record?
Its relative viability is 0.911.

With PC-14 as the cell line, how does the relative viability read?
Its relative viability is 0.27.

With LCLC-103H as the cell line, how does the relative viability read?
The relative viability was 0.811.

How did the relative viability turn out when NCI-H596 was run?
Its relative viability is 0.717.

How did the relative viability turn out when NCI-H2228 was run?
The relative viability was 0.584.

With EMC-BAC-2 as the cell line, how does the relative viability read?
The relative viability was 0.494.

For NCI-H2087, which relative viability is on record?
Its relative viability is 0.513.

With Calu-6 as the cell line, how does the relative viability read?
Its relative viability is 0.591.

For HCC-366, which relative viability is on record?
Its relative viability is 0.283.

Which relative viability does the source give for NCI-H1666 here?
The relative viability was 0.673.

How did the relative viability turn out when NCI-H647 was run?
The relative viability was 0.383.

With LK-2 as the cell line, how does the relative viability read?
The relative viability was 0.444.

How did the relative viability turn out when NCI-H2126 was run?
Its relative viability is 0.759.

How did the relative viability turn out when NCI-H2342 was run?
Its relative viability is 0.372.

How did the relative viability turn out when SK-MES-1 was run?
Its relative viability is 0.672.

Which relative viability does the source give for H3255 here?
Its relative viability is 0.557.

How did the relative viability turn out when COR-L23 was run?
The relative viability was 0.372.

COR-L 105 was tested. Which relative viability did it give?
The relative viability was 0.661.

Which relative viability does the source give for IA-LM here?
Its relative viability is 0.774.

Which relative viability does the source give for LOU-NH91 here?
The relative viability was 0.876.

For ChaGo-K-1, which relative viability is on record?
Its relative viability is 0.378.

For NCI-H2170, which relative viability is on record?
The relative viability was 0.55.

How did the relative viability turn out when NCI-H3122 was run?
The relative viability was 0.615.

Which relative viability does the source give for HOP-62 here?
Its relative viability is 0.326.

Which relative viability does the source give for HCC-44 here?
Its relative viability is 0.999.

A549 was tested. Which relative viability did it give?
The relative viability was 0.306.

With SW 900 as the cell line, how does the relative viability read?
The relative viability was 0.893.

How did the relative viability turn out when LU99A was run?
Its relative viability is 0.273.

Which relative viability does the source give for BEN here?
Its relative viability is 0.722.

HARA was tested. Which relative viability did it give?
The relative viability was 0.646.
